Measurements reported in the kinase profiling compilation of Christmann-Franck et al. (2016).

Legend:
Experiment in all cases: KINOMEscan competition binding
Conditions in all cases: compound 10.0 µM
CAMK1D (human) = CAMK1D (human) (UniProt Q8IU85)
CAMK2B (human) = CAMK2B (human) (UniProt Q13554)
CAMK2D (human) = CAMK2D (human) (UniProt Q13557)
CAMK2G (human) = CAMK2G (human) (UniProt Q13555)
CAMK4 (human) = CAMK4 (human) (UniProt Q16566)
CAMKK1 (human) = CAMKK1 (human) (UniProt Q8N5S9)
CASK (human) = CASK (human) (UniProt O14936)
CDC42BPA (human) = CDC42BPA (human) (UniProt Q5VT25)
CDKL1 (human) = CDKL1 (human) (UniProt Q00532)
CHUK (human) = CHUK (human) (UniProt O15111)
CSNK1G1 (human) = CSNK1G1 (human) (UniProt Q9HCP0)
DCLK2 (human) = DCLK2 (human) (UniProt Q8N568)
[1] = tested on: EGFR (human), P00533 [L858R]
[2] = tested on: EGFR (human), P00533 [T790M]
[3] = tested on: FLT3 (human), P36888 [R834Q]
HCK (human) = HCK (human) (UniProt P08631)
IGF1R (human) = IGF1R (human) (UniProt P08069)
IKBKE (human) = IKBKE (human) (UniProt Q14164)
LIMK2 (human) = LIMK2 (human) (UniProt P53671)
MAP2K7 (human) = MAP2K7 (human) (UniProt O14733)
MAP3K2 (human) = MAP3K2 (human) (UniProt Q9Y2U5)
MAP3K7 (human) = MAP3K7 (human) (UniProt O43318)
MAP4K3 (human) = MAP4K3 (human) (UniProt Q8IVH8)
NEK5 (human) = NEK5 (human) (UniProt Q6P3R8)
PDGFRA (human) = PDGFRA (human) (UniProt P16234)
PKN1 (human) = PKN1 (human) (UniProt Q16512)
PKN3 (M.tuberculosis) = PKN3 (M.tuberculosis) (UniProt Q6P5Z2)
PLK2 (human) = PLK2 (human) (UniProt Q9NYY3)
PRKAA2 (human) = PRKAA2 (human) (UniProt P54646)
PRKCQ (human) = PRKCQ (human) (UniProt Q04759)
PRKG2 (human) = PRKG2 (human) (UniProt Q13237)
RPS6KA5 KD1 (human) = RPS6KA5 KD1 (human) (UniProt O75582)
SIK1 (human) = SIK1 (human) (UniProt P57059)
SRMS (human) = SRMS (human) (UniProt Q9H3Y6)
STK17A (human) = STK17A (human) (UniProt Q9UEE5)
STK24 (human) = STK24 (human) (UniProt Q9Y6E0)
STK32C (human) = STK32C (human) (UniProt Q86UX6)
TEC (human) = TEC (human) (UniProt P42680)
TLK2 (human) = TLK2 (human) (UniProt Q86UE8)
TNIK (human) = TNIK (human) (UniProt Q9UKE5)
TNNI3K (human) = TNNI3K (human) (UniProt Q59H18)

Sequence of SRMS (human) (Q9H3Y6 whole entry, looked up): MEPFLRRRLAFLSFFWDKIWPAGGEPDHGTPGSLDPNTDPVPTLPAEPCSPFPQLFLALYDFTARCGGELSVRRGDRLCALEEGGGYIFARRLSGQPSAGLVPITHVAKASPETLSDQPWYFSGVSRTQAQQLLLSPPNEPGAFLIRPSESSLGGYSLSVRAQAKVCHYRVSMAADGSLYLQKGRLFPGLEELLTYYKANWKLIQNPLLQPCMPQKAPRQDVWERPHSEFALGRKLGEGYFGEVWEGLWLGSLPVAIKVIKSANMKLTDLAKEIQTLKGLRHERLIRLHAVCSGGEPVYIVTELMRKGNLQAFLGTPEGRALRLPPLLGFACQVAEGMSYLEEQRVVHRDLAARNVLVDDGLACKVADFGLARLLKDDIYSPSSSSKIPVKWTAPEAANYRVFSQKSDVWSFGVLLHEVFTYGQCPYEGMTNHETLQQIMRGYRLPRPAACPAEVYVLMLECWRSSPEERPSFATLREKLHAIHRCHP
Sequence of PLK2 (human) (Q9NYY3 whole entry, looked up): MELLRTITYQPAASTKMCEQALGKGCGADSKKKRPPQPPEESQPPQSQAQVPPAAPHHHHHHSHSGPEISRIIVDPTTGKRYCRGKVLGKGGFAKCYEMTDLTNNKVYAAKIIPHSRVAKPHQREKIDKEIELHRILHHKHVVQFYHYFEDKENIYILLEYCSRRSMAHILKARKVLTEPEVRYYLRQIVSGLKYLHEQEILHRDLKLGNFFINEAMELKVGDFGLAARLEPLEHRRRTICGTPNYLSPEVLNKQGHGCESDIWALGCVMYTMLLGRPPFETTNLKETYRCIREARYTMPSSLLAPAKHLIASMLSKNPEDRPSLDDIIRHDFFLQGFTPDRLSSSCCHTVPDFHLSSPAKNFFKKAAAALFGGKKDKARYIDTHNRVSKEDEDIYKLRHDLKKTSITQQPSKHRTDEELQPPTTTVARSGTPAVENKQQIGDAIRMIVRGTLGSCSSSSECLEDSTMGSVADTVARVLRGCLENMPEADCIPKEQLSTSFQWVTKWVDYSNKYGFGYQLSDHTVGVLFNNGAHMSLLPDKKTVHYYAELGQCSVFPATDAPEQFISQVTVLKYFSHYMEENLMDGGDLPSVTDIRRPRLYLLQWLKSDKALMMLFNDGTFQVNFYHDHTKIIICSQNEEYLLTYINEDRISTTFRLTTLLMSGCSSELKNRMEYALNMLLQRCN
Sequence of CAMK2G (human) (Q13555 whole entry, looked up): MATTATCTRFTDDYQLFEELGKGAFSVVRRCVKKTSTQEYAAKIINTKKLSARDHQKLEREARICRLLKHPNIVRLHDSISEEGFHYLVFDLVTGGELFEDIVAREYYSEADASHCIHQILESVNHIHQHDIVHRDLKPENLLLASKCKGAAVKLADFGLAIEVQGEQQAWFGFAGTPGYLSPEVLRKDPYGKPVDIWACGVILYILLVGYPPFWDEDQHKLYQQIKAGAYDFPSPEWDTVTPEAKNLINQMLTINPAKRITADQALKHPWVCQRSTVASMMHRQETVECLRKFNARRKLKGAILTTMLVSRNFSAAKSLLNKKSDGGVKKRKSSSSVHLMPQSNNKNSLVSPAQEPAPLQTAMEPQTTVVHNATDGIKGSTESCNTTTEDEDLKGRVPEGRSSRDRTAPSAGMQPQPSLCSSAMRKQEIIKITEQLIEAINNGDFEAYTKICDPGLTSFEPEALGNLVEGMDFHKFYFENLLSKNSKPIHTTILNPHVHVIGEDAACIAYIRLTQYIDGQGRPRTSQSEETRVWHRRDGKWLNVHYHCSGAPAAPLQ
Sequence of CAMK1D (human) (Q8IU85 whole entry, looked up): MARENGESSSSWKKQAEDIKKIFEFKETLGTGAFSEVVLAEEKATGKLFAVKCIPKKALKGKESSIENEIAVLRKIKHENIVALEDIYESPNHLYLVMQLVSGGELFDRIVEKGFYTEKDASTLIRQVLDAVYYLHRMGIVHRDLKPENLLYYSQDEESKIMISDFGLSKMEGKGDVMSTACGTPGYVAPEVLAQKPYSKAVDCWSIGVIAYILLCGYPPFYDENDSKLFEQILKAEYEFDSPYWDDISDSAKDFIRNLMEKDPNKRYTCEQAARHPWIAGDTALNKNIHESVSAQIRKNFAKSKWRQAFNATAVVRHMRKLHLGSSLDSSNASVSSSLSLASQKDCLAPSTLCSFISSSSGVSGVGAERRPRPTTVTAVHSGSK
Sequence of DCLK2 (human) (Q8N568 whole entry, looked up): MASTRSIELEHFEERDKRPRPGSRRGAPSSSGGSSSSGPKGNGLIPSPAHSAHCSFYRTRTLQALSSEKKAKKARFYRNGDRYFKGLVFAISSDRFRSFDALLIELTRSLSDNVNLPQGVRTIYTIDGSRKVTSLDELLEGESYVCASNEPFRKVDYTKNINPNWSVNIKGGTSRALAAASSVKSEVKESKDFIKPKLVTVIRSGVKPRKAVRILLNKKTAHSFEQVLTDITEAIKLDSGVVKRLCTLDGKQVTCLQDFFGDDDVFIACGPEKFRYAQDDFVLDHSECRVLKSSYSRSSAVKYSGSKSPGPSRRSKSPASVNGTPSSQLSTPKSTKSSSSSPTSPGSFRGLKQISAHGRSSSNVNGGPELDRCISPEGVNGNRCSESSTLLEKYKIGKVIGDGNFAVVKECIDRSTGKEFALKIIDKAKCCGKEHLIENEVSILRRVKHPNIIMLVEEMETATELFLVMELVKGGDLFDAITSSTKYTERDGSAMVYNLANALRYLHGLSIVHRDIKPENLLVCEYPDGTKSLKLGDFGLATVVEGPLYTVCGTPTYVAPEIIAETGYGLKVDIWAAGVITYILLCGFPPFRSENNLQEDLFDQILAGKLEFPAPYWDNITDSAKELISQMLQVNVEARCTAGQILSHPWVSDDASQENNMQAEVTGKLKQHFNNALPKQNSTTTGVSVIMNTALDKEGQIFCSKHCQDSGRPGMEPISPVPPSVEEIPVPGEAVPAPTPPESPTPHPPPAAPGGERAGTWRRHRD
Sequence of STK17A (human) (Q9UEE5 whole entry, looked up): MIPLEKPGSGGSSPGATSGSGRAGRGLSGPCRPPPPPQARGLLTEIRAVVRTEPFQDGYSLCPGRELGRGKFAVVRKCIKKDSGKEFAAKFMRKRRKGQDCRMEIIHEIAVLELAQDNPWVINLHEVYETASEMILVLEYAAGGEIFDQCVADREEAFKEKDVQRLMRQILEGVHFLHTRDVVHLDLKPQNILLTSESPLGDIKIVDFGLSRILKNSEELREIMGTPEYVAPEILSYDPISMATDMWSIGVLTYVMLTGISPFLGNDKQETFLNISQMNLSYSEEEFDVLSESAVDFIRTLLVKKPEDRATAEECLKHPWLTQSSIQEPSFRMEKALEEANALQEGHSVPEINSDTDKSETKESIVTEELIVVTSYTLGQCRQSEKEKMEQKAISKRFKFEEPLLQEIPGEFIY
Sequence of PRKCQ (human) (Q04759 whole entry, looked up): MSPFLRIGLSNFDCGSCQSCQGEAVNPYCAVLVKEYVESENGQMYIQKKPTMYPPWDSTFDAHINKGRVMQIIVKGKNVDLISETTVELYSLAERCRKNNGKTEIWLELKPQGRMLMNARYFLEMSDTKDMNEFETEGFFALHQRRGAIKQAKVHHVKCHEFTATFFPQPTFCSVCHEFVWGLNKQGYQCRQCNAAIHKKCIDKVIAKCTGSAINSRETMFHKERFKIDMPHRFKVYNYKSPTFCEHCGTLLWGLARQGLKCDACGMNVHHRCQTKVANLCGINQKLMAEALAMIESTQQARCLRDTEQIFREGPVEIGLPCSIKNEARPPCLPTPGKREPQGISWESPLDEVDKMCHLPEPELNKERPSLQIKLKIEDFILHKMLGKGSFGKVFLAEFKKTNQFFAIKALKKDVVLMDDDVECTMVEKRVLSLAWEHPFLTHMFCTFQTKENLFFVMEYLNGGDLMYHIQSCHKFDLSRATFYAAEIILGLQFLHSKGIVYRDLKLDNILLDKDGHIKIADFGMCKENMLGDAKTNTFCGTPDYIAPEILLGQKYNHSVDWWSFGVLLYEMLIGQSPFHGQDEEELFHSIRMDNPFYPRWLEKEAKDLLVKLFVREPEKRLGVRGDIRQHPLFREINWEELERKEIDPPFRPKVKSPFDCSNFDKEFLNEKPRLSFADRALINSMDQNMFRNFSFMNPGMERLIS
Sequence of RPS6KA5 KD1 (human) (O75582 whole entry, looked up): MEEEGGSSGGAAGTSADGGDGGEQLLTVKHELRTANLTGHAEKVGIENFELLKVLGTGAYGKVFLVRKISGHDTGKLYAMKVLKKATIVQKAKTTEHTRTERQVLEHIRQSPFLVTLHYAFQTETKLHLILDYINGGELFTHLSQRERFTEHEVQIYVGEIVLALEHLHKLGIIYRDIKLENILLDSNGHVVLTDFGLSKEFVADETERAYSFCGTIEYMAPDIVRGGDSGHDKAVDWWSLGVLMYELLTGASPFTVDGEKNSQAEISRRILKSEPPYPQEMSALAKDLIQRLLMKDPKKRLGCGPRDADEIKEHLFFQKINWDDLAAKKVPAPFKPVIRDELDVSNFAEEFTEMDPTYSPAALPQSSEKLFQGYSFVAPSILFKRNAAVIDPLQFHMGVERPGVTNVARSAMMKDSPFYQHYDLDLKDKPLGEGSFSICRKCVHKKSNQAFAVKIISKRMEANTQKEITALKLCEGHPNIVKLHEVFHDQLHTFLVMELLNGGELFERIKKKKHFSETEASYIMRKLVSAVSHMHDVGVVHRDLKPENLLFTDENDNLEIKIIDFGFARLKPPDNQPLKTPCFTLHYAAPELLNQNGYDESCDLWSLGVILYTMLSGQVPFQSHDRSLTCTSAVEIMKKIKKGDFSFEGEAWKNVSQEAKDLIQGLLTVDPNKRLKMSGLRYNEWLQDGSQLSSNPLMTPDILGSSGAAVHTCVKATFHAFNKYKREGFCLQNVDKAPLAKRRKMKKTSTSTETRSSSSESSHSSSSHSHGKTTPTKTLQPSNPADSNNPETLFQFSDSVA

**Q.** Which kinase still bound, per cent of control (CAMK1D (human)) does the source give for COc1ccc(-c2ccc3c(N4CCOCC4)nc(N4C[C@@H](C)O[C@@H](C)C4)nc3n2)cc1CO here?
**A.** 89%

**Q.** What about the kinase still bound, per cent of control (CAMK2B (human)) of the same molecule?
**A.** 96%

**Q.** What about the kinase still bound, per cent of control (CAMK2D (human)) of the same molecule?
**A.** 100%

**Q.** And the kinase still bound, per cent of control (CAMK2G (human))?
**A.** 87%

**Q.** And the kinase still bound, per cent of control (CAMK4 (human))?
**A.** 100%

**Q.** What about the kinase still bound, per cent of control (CAMKK1 (human)) of the same molecule?
**A.** 100%

**Q.** What about the kinase still bound, per cent of control (CASK (human)) of the same molecule?
**A.** 100%

**Q.** And the kinase still bound, per cent of control (CDC42BPA (human))?
**A.** 92%

**Q.** And the per cent of control (CDKL1 (human))?
**A.** 100%

**Q.** What about the kinase still bound, per cent of control (CHUK (human)) of the same molecule?
**A.** 72%

**Q.** What about the kinase still bound, per cent of control (CSNK1G1 (human)) of the same molecule?
**A.** 94%

**Q.** And the kinase still bound, per cent of control (DCLK2 (human))?
**A.** 100%

**Q.** What about the kinase still bound, per cent of control [1] of the same molecule?
**A.** 100%

**Q.** And the kinase still bound, per cent of control [2]?
**A.** 100%

**Q.** And the kinase still bound, per cent of control [3]?
**A.** 100%

**Q.** And the kinase still bound, per cent of control (HCK (human))?
**A.** 100%

**Q.** And the per cent of control (IGF1R (human))?
**A.** 100%

**Q.** And the kinase still bound, per cent of control (IKBKE (human))?
**A.** 100%

**Q.** And the kinase still bound, per cent of control (LIMK2 (human))?
**A.** 94%

**Q.** What about the kinase still bound, per cent of control (MAP2K7 (human)) of the same molecule?
**A.** 100%

**Q.** What about the kinase still bound, per cent of control (MAP3K2 (human)) of the same molecule?
**A.** 78%

**Q.** And the kinase still bound, per cent of control (MAP3K7 (human))?
**A.** 99%

**Q.** And the kinase still bound, per cent of control (MAP4K3 (human))?
**A.** 85%

**Q.** And the kinase still bound, per cent of control (NEK5 (human))?
**A.** 100%

**Q.** What about the kinase still bound, per cent of control (PDGFRA (human)) of the same molecule?
**A.** 94%

**Q.** And the kinase still bound, per cent of control (PKN1 (human))?
**A.** 94%

**Q.** And the kinase still bound, per cent of control (PKN3 (M.tuberculosis))?
**A.** 100%

**Q.** And the kinase still bound, per cent of control (PLK2 (human))?
**A.** 100%

**Q.** And the kinase still bound, per cent of control (PRKAA2 (human))?
**A.** 100%

**Q.** What about the kinase still bound, per cent of control (PRKCQ (human)) of the same molecule?
**A.** 100%

**Q.** And the kinase still bound, per cent of control (PRKG2 (human))?
**A.** 100%

**Q.** And the kinase still bound, per cent of control (RPS6KA5 KD1 (human))?
**A.** 100%

**Q.** What about the kinase still bound, per cent of control (SIK1 (human)) of the same molecule?
**A.** 90%

**Q.** And the kinase still bound, per cent of control (SRMS (human))?
**A.** 98%

**Q.** And the kinase still bound, per cent of control (STK17A (human))?
**A.** 96%

**Q.** And the kinase still bound, per cent of control (STK24 (human))?
**A.** 89%

**Q.** What about the kinase still bound, per cent of control (STK32C (human)) of the same molecule?
**A.** 87%

**Q.** What about the kinase still bound, per cent of control (TEC (human)) of the same molecule?
**A.** 92%

**Q.** And the kinase still bound, per cent of control (TLK2 (human))?
**A.** 87%

**Q.** What about the kinase still bound, per cent of control (TNIK (human)) of the same molecule?
**A.** 100%

**Q.** What about the kinase still bound, per cent of control (TNNI3K (human)) of the same molecule?
**A.** 100%
